{
  "source": "patent US12714094B2",
  "about": "“Cryoprotectant polymers and methods of making and using thereof” (BOARD OF REGENTS, THE UNIVERSITY OF TEXAS SYSTEM, priority 2019, dated 2026)",
  "test": "Differential scanning calorimetry of polymer/water and polymer/PBS solutions (ice formation, Tg, phase behavior)",
  "type": "physicochemical",
  "settings": "50 wt % aqueous solution",
  "protocol": "Differential Scanning calorimetry (DSC). DSC was used to determine the Tg of pure polymer and aqueous polymer solutions. PMGS is hygroscopic, so PMGS batches were dried in vacuo for at least four hours prior to sample preparation. Polymer solutions were made by mixing dry PMGS with phosphate buffer solution (PBS) and hand-mixing until a homogeneous solution was achieved. DSC samples were prepared by loading TZero pans with at least 5 mg of each solution and sealing them with hermetic lids to prevent evaporation. DSC samples of pure polymer were typically scanned from −20 to 120° C. four times, and the Tg was determined from the last heating cycle. DSC samples of polymer solutions were cooled to −90 and heated to 20° C., and the Tg was determined on the heating cycle.\nDifferential scanning calorimetry. For PMGS/water mixtures, 6-8 mg of solution was placed in an aluminum DSC pan. The samples were cooled at 1° C./min to −90° C., held at −90° C. for 1 minute, then heated to 20° C. at 10° C./min. For neat PMGS, the polymer was dried overnight under vacuum, then the polymer was removed from the vacuum and 5-10 mg was immediately transferred to an aluminum DSC pan. The sample was heated to 150° C. at 10° C./min, held for 1 min, then cooled to −10° C. at 10° C./min and held for 1 min. […]",
  "note": "Entries after “also recorded” stand apart in the source; their conditions may differ.",
  "data": [
    {"molecule": "C[S+](C)[O-]", "note": "[DMSO, dimethyl sulfoxide]", "values": [
      {"measurement": "ice formation (in words)", "value": "No ice formed; also recorded: enough to arrest ice formation in solution"}
    ]}
  ]
}
